From patent US8309528B2, “Two pore channels as regulators of proliferation in cancer” (The Trustees of Columbia University in the City of New York, priority 2006, dated 2012)

Columns and labels:
human TREK-1 = biological target: T1, human TREK-1 (Homo sapiens, UniProt O95069); test: Patch clamp of TREK-1 current in CHO cells transfected with human TREK-1; assay type: cell-based; details: CHO cells heterologously expressing human TREK-1; ramp protocol -130 mV to +40 mV in 6 s
T1 construct: expressed in transfected cells; host or cells: CHO cells
T1 sequence (O95069 1-426): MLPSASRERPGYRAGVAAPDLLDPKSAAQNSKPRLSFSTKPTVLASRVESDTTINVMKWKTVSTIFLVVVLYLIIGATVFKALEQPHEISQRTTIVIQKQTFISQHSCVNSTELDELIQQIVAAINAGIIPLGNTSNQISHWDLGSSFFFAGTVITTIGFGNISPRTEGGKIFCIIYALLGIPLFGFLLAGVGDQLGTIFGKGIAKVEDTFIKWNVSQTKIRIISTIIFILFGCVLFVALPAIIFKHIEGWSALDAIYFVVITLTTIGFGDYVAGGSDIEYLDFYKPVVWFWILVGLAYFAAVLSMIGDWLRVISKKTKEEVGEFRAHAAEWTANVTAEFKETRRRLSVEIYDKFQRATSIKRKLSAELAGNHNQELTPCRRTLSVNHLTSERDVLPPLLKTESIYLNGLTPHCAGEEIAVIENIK
Method: (§1) FIG. 7. […] CHO cells were transfected with a plasmid encoding human TREK-1 and the current was studied by patch clamp. The current-voltage relation was determined using a ramp protocol that went from −130 mV to +40 mV in 6 s (after correction for the junction potential). Current was greater in the presence of meclofenamate. This is typical of 7 cells.
as §1, with “8.” for “7.”, “less” for “greater”, “trifluoperazine.” for “meclofenamate.”, “3” for “7”
(§2) CHO cells were transfected with a plasmid encoding human TREK-1 and the current was studied by patch clamp. The current-voltage relation was determined using a ramp protocol that went from −130 mV to +40 mV in 6 s (after correction for the junction potential). Current was greater in the presence of meclofenamate. This is typical of 7 cells.
as §2, with “less” for “greater”, “trifluoperazine.” for “meclofenamate.”, “3” for “7”

[1] = system: normal prostate epithelial cells (NPE) expressing TREK-1; test: MTT proliferation assay of normal prostate epithelial cells infected with TREK-1 adenovirus; assay type: cell-based; details: sipatrigine 10 μM; compared with NPE/TREK-1 and other groups; five paired experiments
Method: FIG. 3. Dominant-negative TREK-1 reduces proliferation of PC-3 cells. PC-3 cells were transfected with either dn-TREK (or a control vector (PEGFP) using GeneJammer (Stratagene) under standard conditions. Proliferation of these cells was measured using the MTT assay after the cells were plated at 1×10^5 cells/well in 96 well plates. Data are presented as the mean ±SEM of five experiments. * p<0.05 vs control and EGFP
FIG. 5. Expression of TREK-1 increases proliferation of normal prostate epithelial cells (NPE). Normal prostate epithelial cell cultures were obtained from Clonetics and infected with a TREK-1-containing adenovirus. Some virally infected cells were also treated with sipatrigine (10 μM), a TREK-1 blocker. Cell proliferation was assessed using the MTT assay as described in FIG. 3.
Normal prostate epithelial cell cultures were obtained from Clonetics and infected with a TREK-1-containing adenovirus. Some virally infected cells were also treated with sipatrigine (10 μM), a TREK-1 blocker. Cell proliferation was assessed using the MTT assay as described in FIG. 3.

| Effect on TREK-1 current (human TREK-1) | SMILES | Cell proliferation (MTT) of TREK-1-infected NPE [1] |
| --- | --- | --- |
| activates TREK-1 current | Cc1ccc(Cl)c(Nc2ccccc2C(=O)O)c1Cl [Meclofenamate, Meclofenamic acid] |  |
| inhibits TREK-1 current | CN1CCN(CCCN2c3ccccc3Sc3ccc(C(F)(F)F)cc32)CC1 [Trifluoperazine] |  |
|  | CN1CCN(c2ncc(-c3cc(Cl)cc(Cl)c3Cl)c(N)n2)CC1 [sipatrigine] | no other groups were different |
